Measurements taken from patent publication US7122203B2, “Stabilized formulations of 6-hydroxy-3-(-4-[2-(piperidin-1-yl) ethoxy]phenoxy)-2-(4-methoxyphenyl) benzo[b]thiophene and salts thereof” (Eli Lilly and Company, priority 2000, dated 2006).

Columns and labels:
Type in all cases: physicochemical
[1] = Hygroscopicity / moisture sorption isotherms; details: for water content: ambient relative humidities (about 50% R.H.); for water content / immediate weight gain (moisture): hydrochloride; for immediate weight gain (moisture): upon initial exposure to approximately 5% R.H.
Description: Hygroscopicity measurements were made for F-I and F-III using the VTI method as follows. Each sample was dried under vacuum at 60° C. until no further weight loss was detected, at which time the sample chamber was brought to 0% relative humidity. Moisture sorption isotherms were obtained at 25° C. using a VTI vacuum moisture balance with the following conditions: sample size 10–15 mg, adsorption/desorption range 0–95% relative humidity, step interval 5%, sample interval 10 minutes.
Moisture Sorption Isotherms were generated using a VTI SGA-100 flow instrument. The samples were analyzed at 25° C. from 0–95% relative humidity (RH) for adsorption and from 95–5% RH for desorption in steps of 5% RH. The adsorption and desorption isotherms were generated as a graph of the % weight change vs. % RH.

[2] = Aqueous solubility and dissolution rate of crystal forms
[3] = Physical stability of crystal forms (XRD at different relative humidities, variable temperature XRD)
Description: XRD patterns were obtained on a […] powder diffractometer, equipped with a CuKα source (λ=1.54056 Å) and a Kevex solid-state detector, operating at 50 kV and 40 mA. Each sample was scanned between 4° and 35° in 2θ. Samples were allowed to equilibrate for at least 30 minutes at the desired temperature and/or relative humidity before data collection. Variable temperature X-ray powder diffraction patterns were obtained on a […] powder diffractometer which was equipped with a CuKα source (λ=1.54056 Å) operated at 50 kV and 40 mA with a scintillation detector and nickel filter. The powder was packed into a top-loading, recessed temperature controlled holder and a smooth surface was obtained for diffraction. The sample was scanned from 2 to 35° 2θ at 2.5 seconds per step size of 0.04° beginning at 25° C. after an equilibration time of 5 minutes. Subsequent scans were obtained at increasing temperature increments of 25° C. to a maximum of 125° C.

Compound	water content [1]	immediate weight gain (moisture) ([1]; 25° C.) [%]	aqueous solubilities and dissolution rates of the two forms (F-I vs F-III) [2]	physical stability over the entire relative humidity range [3]	weight increase in moisture sorption/desorption isotherm ([1]; over the range of 0–95% RH, 25° C.) [%]	higher aqueous solubility relative to F-III [2] [%]	thermodynamic stability among known forms of arzoxifene hydrochloride ([3]; ambient storage conditions)	change in diffraction pattern, variable temperature x-ray powder diffraction ([3]; up to 125° C.)
COc1ccc(-c2sc3cc(O)ccc3c2Oc2ccc(OCCN3CCCCC3)cc2)cc1.Cl [F-I, 6-Hydroxy-3-(4-[2-(piperidin-1-yl)ethoxy]phenoxy)-2-(4-methoxyphenyl)benzo[b]thiophene hydrochloride]	about 2.2%	1.5	comparable	physically stable	–	–	–	–
COc1ccc(-c2sc3cc(O)ccc3c2Oc2ccc(OCCN3CCCCC3)cc2)cc1.Cl [F-III, 6-Hydroxy-3-(4-[2-(piperidin-1-yl)ethoxy]phenoxy)-2-(4-methoxyphenyl)benzo[b]thiophene hydrochloride]	about 3.7%	1.7	comparable	physically stable	–	–	–	–
COc1ccc(-c2sc3cc(O)ccc3c2Oc2ccc(OCCN3CCCCC3)cc2)cc1.Cl [F-V, 6-Hydroxy-3-(4-[2-(piperidin-1-yl)ethoxy]phenoxy)-2-(4-methoxyphenyl)benzo[b]thiophene hydrochloride]	–	–	–	–	0.11	~10	thermodynamically most stable known form	no significant change
